Data reported in patent publication US20250195628A1, “ANALYTICAL METHOD AND THERAPEUTICAL AGENT FOR USE IN COMBINATION WITH L-ASPARAGINASE IN TUMOUR THERAPY” (Medizinische Hochschule Hannover, priority 2022, published 2025).

Legend:
T-ALL cells (CCRF-CEM) = assay: Cell viability after UBR2 knock-out by sgRNA and L-asparaginase treatment, CCRF-CEM; assay type: cell-based, human; conditions: 100 U/L L-asparaginase, 48 h, versus sgAAVS1, FIG. 4B
Method: (§1) Cas9-expressing Jurkat cells or T-ALL cells (CCRF-CEM) were treated with sgRNA that specifically knocked-out UBR2 (sgUBR2 #3, […], SEQ ID NO: 3) or control sgRNA directed against the safe harbor control locus AAVS1 (sgAAVS1, 5′-[…]-3′, SEQ ID NO: 4), and after knock-out of UBR2 cells were incubated under cell-culture conditions with 100 U/L L-asparaginase (Asp) or PBS as control agent (Vehicle). Cell viability was analysed by Trypan blue exclusion after 48 h of incubation.
(§2) FIG. 4A for Jurkat cells, FIG. 4B for the T-ALL cells depict the cell viability normalized to the cell viability for Vehicle. […] P-values reflect the comparison of control inhibitor (AAVS1) and inhibitor of UBR2 (sgUBR2), calculated using a two-way ANOVA with Sidak's adjustments for multiple comparisons.

[1] = test system: Cas9-expressing Jurkat cells; assay: Cell viability after UBR2 knock-out by sgRNA and L-asparaginase treatment, Jurkat; assay type: cell-based, human; conditions: 100 U/L L-asparaginase, 48 h, versus sgAAVS1, FIG. 4A
Method: as §1, §2

sgUBR2 #3: sgRNA that specifically knocked-out UBR2, GAAACTTGAAATAGTCTAAA, SEQ ID NO: 3 (listed as DNA, chemistry not given here)
effect on sensitivity for L-asparaginase (cell viability normalized to Vehicle) (T-ALL cells (CCRF-CEM)): increased the sensitivity
effect on sensitivity for L-asparaginase (cell viability normalized to Vehicle) [1]: increased the sensitivity
